Experimental data published in patent US20120302607A1, “C4-SUBSTITUTED ALPHA-KETO OXAZOLES” (The Scripps Research Institute, priority 2008, published 2012).
Like-named read-outs stand apart in the source and are kept apart here.

What was measured:
[1] = molecular target: T1, truncated rat FAAH (rFAAH) (Rattus norvegicus, UniProt P97612); assay: Rat FAAH inhibition enzyme assay (14C-oleamide hydrolysis, Dixon plot); assay type: biochemical
T1 construct: The truncated rat FAAH (rFAAH) was expressed in E. coli and purified as described by Patricelli et al; made in house; host or cells: E. coli
T1 sequence (P97612 30-579 limits assumed): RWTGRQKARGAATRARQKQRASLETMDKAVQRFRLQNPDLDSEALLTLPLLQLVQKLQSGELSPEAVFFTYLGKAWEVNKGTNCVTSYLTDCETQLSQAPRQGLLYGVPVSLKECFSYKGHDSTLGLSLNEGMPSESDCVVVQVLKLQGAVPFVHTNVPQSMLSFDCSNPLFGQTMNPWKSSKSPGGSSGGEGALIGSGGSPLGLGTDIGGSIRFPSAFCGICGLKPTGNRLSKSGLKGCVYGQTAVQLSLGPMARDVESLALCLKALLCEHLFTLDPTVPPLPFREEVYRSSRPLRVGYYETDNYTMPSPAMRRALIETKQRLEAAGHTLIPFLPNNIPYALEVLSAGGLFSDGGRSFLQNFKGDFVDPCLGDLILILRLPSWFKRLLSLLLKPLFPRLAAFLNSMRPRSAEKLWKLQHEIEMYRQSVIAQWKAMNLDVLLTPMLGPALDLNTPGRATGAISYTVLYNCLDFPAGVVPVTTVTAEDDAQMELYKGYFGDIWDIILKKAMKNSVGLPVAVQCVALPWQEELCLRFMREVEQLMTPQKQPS
Description: The purified recombinant rFAAH was used in the inhibition assays unless otherwise indicated.
The ^14C-labeled oleamide (substrate) and oleic acid (product) were extracted with EtOAc and analyzed by TLC. The Ki of the inhibitor was calculated using a Dixon plot (standard deviations are provided in the Supporting Information tables).

FAAH = molecular target: T2, FAAH (UniProt O08914); assay: Proteome-wide serine hydrolase selectivity screening, FAAH; assay type: biochemical, human
T2 sequence (O08914 1-579): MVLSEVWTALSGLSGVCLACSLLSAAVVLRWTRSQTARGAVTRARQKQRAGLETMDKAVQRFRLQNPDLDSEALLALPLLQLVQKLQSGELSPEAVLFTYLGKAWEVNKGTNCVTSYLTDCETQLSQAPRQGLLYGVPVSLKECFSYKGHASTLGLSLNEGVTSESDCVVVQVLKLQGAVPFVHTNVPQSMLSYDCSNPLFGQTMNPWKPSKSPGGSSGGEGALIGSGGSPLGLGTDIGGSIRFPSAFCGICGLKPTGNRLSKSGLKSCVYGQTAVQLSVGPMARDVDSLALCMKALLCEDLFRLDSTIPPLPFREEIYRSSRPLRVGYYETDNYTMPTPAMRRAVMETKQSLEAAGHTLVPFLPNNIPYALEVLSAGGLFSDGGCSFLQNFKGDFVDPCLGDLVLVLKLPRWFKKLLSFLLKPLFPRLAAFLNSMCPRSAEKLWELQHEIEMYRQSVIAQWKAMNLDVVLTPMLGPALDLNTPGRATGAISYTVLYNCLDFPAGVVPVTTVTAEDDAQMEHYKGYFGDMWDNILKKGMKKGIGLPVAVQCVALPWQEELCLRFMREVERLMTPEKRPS

[2] = molecular target: T3, membrane-associated hydrolase (KIAA1363) (UniProt Q8BLF1); assay: Proteome-wide serine hydrolase selectivity screening, KIAA1363; assay type: biochemical; conditions: selectivity screening
T3 sequence (Q8BLF1 1-408): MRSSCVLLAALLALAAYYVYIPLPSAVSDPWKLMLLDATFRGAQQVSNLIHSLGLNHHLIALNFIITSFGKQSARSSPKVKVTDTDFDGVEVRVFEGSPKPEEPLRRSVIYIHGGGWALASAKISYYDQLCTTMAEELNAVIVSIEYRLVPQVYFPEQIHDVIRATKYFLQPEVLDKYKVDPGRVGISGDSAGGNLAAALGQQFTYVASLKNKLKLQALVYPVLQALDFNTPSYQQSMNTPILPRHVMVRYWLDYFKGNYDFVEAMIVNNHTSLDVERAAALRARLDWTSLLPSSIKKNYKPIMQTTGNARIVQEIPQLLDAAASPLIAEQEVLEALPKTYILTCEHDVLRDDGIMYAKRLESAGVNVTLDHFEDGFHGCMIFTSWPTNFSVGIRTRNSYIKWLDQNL

[3] = test system: membrane-associated hydrolase (KIAA1363); assay: as above; assay type: biochemical; conditions: value in parentheses; FAAH versus KIAA1363
[4] = molecular target: T4, triacylglycerol hydrolase (TGH) (UniProt Q8VCT4); assay: Proteome-wide serine hydrolase selectivity screening, TGH; assay type: biochemical, human; conditions: selectivity screening
T4 sequence (Q8VCT4 1-565): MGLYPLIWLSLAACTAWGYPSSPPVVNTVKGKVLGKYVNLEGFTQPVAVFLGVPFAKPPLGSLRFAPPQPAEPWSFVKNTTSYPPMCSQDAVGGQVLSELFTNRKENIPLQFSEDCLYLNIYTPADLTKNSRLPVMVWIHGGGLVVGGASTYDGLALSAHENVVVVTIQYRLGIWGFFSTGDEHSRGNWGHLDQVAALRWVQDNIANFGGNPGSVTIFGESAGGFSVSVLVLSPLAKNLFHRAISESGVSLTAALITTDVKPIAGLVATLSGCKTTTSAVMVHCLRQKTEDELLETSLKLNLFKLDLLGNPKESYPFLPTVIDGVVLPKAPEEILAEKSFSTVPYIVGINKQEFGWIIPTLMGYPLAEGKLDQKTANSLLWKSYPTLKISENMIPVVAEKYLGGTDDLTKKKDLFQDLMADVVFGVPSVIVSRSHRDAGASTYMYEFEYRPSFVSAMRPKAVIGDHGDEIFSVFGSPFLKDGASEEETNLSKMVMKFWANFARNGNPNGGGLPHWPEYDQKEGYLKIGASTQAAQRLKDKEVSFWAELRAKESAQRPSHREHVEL

[5] = test system: triacylglycerol hydrolase (TGH); assay: as above; assay type: biochemical, human; conditions: FAAH versus TGH; for TGH (selectivity): value in parentheses
[6] = % hydration or hemiketal formation by 1H and 13C NMR in solvent; assay type: physicochemical; conditions: for form in protic solution: at C4, not C2, 1H and 13C NMR
Source text: The evaluation of Ki provides information about active site binding. […] More subtly, aldehyde 4g (and trifluoromethyl ketone 4i) was established to exist in protic solution as gem diols (at C4, not C2; ^1H and ^13C NMR, data in Examples below).

[7] = Table 1, purified recombinant rFAAH, pH 9.0, read-out: Rat FAAH inhibition Ki
[8] = Table 4, value ± error, read-out: Ki, inhibition results with calculated errors
[9] = CD3OD, at the C4 substituent carbonyl

Row | SMILES | Ki [1, 7] [nM] | Ki [1, 8] [nM] | IC50 [2] [µM] | IC50 [4] [nM] | further results
1 | O=C(CCCCCCc1ccccc1)c1nc(Br)co1 [Compound 4b, 1-(4-Bromooxazol-2-yl)-7-phenylheptan-1-one] | 3 | 3 ± 0.02 |  |  | 
2 | O=C(CCCCCCc1ccccc1)c1nc(-c2ccncc2)co1 [Compound 4m, 7-phenyl-1-(4-(pyridin-4-yl)oxazol-2-yl)heptan-1-one] | 1.6 | 1.6 ± 0.01 | > 100 | 700 | Ki ([1]; Table 2, read-out: FAAH Ki): 1.7 nM; IC50 (FAAH): 140 nM; KIAA1363 (selectivity) [3]: (>700); TGH (selectivity) [5]: (5)
3 | N#Cc1coc(C(=O)CCCCCCc2ccccc2)n1 [Compound 4s, 2-(7-Phenylheptanoyl)oxazole-4-carbonitrile] | 0.5 | 0.5 ± 0.009 | 30 | 30 | Ki ([1]; Table 2, read-out: FAAH Ki): 0.6 nM; IC50 (FAAH): 20 nM; KIAA1363 (selectivity) [3]: (1500); TGH (selectivity) [5]: (1.5)
4 | NC(=O)c1coc(C(=O)CCCCCCc2ccccc2)n1 [Compound 4p, 2-(7-Phenylheptanoyl)oxazole-4-carboxamide] | 1.6 | 1.6 ± 0.001 |  |  | 
5 | O=C(CCCCCCc1ccccc1)c1nc(C(F)(F)F)co1 [Compound 4t, 7-Phenyl-1-(4-(trifluoromethyl)oxazol-2-yl)heptan-1-one] | 3.7 | 3.7 ± 0.02 | 10 | 60 | Ki ([1]; Table 2, read-out: FAAH Ki): 3.7 nM; IC50 (FAAH): 400 nM; KIAA1363 (selectivity) [3]: (25); TGH (selectivity) [5]: (0.15)
6 | O=C(CCCCCCc1ccccc1)c1nc(-c2cccnc2)co1 [Compound 4l, 7-Phenyl-1-(4-(pyridin-3-yl)oxazol-2-yl)heptan-1-one] | 18 | 18 ± 0.1 |  |  | % Hydration or Hemiketal Formation [6, 9]: >95% for COCF3; % Hydration or Hemiketal Formation ([6]; CDCl3): 33%
7 | COc1coc(C(=O)CCCCCCc2ccccc2)n1 [Compound 4u, 1-(4-Methoxyoxazol-2-yl)-7-phenylheptan-1-one] | 740 | 740 ± 0.07 |  |  | 
8 | O=C(CCCCCCc1ccccc1)c1nc(-c2ccccn2)co1 [Compound 4k, 7-Phenyl-1-(4-(pyridin-2-yl)oxazol-2-yl)heptan-1-one] | 1.9 | 1.9 ± 0.02 | > 100 | 10000 | Ki ([1]; Table 2, read-out: FAAH Ki): 1.9 nM; IC50 (FAAH): 30 nM; KIAA1363 (selectivity) [3]: (>3000); enhancement in FAAH selectivity ([5]; relative to 4a, text b175): > 40,000 fold; TGH (selectivity) [5]: (330)
9 | O=C(CCCCCCc1ccccc1)c1nc(I)co1 [Compound 4d, 1-(4-Iodooxazol-2-yl)-7-phenylheptan-1-one] | 6.5 | 6.5 ± 0.26 |  |  | 
10 | O=C(CCCCCCc1ccccc1)c1ncc(C(F)(F)F)o1 [Compound 5a, reference compound] |  |  | > 100 | 200 | Ki ([1]; Table 2, read-out: FAAH Ki): 0.3 nM; IC50 (FAAH): 70 nM; KIAA1363 (selectivity) [3]: (>1400); TGH (selectivity) [5]: (3)
11 | O=C(CCCCCCc1ccccc1)c1ncc(-c2ccccn2)o1 [Compound 5c, reference compound] |  |  | > 100 |  | 
12 | O=Cc1coc(C(=O)CCCCCCc2ccccc2)n1 [Compound 4g, 2-(7-Phenylheptanoyl)oxazole-4-carbaldehyde] | 55 | 55 ± 5 |  |  | % Hydration or Hemiketal Formation [6, 9]: >95% for CHO; % Hydration or Hemiketal Formation ([6]; CDCl3): 0%; form in protic solution [6]: gem diols
13 | O=C(CCCCCCc1ccccc1)c1nc(Cl)co1 [Compound 4c, 1-(4-Chlorooxazol-2-yl)-7-phenylheptan-1-one] | 4 | 4 ± 0.05 |  |  | 
14 | COC(=O)c1coc(C(=O)CCCCCCc2ccccc2)n1 [Compound 4j, Methyl 2-(7-Phenylheptanoyl)oxazole-4-carboxylate] | 3.4 | 3.4 ± 0.05 |  |  | 
15 | N#Cc1cnc(C(=O)CCCCCCc2ccccc2)o1 [Compound 5b, reference compound] |  |  | > 100 | 20 | 
16 | CN(C)C(=O)c1coc(C(=O)CCCCCCc2ccccc2)n1 [Compound 4r, N,N-Dimethyl-2-(7-phenylheptanoyl)oxazole-4-carboxamide] | 35 | 35 ± 0.1 |  |  | 
17 | CNC(=O)c1coc(C(=O)CCCCCCc2ccccc2)n1 [Compound 4q, N-Methyl-2-(7-phenylheptanoyl)oxazole-4-carboxamide] | 1.8 | 1.8 ± 0.005 |  |  | 
18 | CC(=O)c1coc(C(=O)CCCCCCc2ccccc2)n1 [Compound 4h, 1-(4-Acetyloxazol-2-yl)-7-phenylheptan-1-one] | 2 | 2 ± 0.07 |  |  | 
19 | Cc1coc(C(=O)CCCCCCc2ccccc2)n1 [Compound 4e, 1-(4-Methyloxazol-2-yl)-7-phenylheptan-1-one] | 520 | 520 ± 1 |  |  | 
20 | O=C(CCCCCCc1ccccc1)c1nc(-c2ccccc2)co1 [Compound 4n, 7-Phenyl-1-(4-phenyloxazol-2-yl)heptan-1-one] | 65 | 65 ± 4.4 |  |  | 
21 | O=C(CCCCCCc1ccccc1)c1nc(C(=O)C(F)(F)F)co1 [Compound 4i, 7-Phenyl-1-(4-(2,2,2-trifluoroacetyl)oxazol-2-yl)heptan-1-one] | 470 | 470 ± 2 |  |  | form in protic solution [6]: gem diols
22 | O=C(O)c1cnc(C(=O)CCCCCCc2ccccc2)o1 [Compound 5d, reference compound] |  |  | > 100 | > 100000 | IC50 (FAAH): 900 nM
23 | O=C(CCCCCCc1ccccc1)c1ncco1 [Compound 4a] |  |  | 20 | 20 | IC50 (FAAH): 2500 nM
24 | CSc1coc(C(=O)CCCCCCc2ccccc2)n1 [Compound 4f, 1-(4-(Methylthio)oxazol-2-yl)-7-phenylheptan-1-one] | 29 | 29 ± 0.2 |  |  | 
